Values quoted from earlier work, collected in patent publication US20210346453A1, “COMPOSITIONS AND METHODS FOR TREATMENT OF COVID-19” (Cognitive Clarity Inc., priority 2020, published 2021).

What was measured:
[1] = tested on: inflammation in brain (astrocytosis and microgliosis); conditions: plaque-producing transgenic mice, within 3 months of treatment
[2] = tested on: brain plaques and tangles; conditions: aging brain
[3] = tested on: COVID-19; conditions: compared to placebo

Compound | reduction of inflammation in brain (astrocytosis and microgliosis) [1] | brain plaques and tangles [2] | risk of being hospitalized or visiting the Emergency Room within 28 days after treatment [3]
Oc1cc(O)c2c(c1)O[C@H](c1ccc(O)c(O)c1)[C@H](O)[C@H]2c1c(O)cc(O)c2c1O[C@H](c1ccc(O)c(O)c1)[C@H](O)C2 [Proanthocyanidin B2, epicatechin-4β-8-epicatechin] | 69%-80.3% | inhibit and reduce | –
Oc1ccc([C@H]2Oc3cc(O)cc(O)c3[C@H](c3c(O)cc(O)c4c3O[C@H](c3ccc(O)c(O)c3)[C@H](O)C4)[C@H]2O)cc1 [epiafzelechin-4β-8-epicatechin] | – | inhibit and reduce | –
Oc1cc(O)c2c(c1)O[C@H](c1ccc(O)c(O)c1)[C@@H](O)[C@@H]2c1c(O)cc(O)c2c1O[C@H](c1ccc(O)c(O)c1)[C@H](O)C2 [proanthocyanidin B4, catechin-4-α-8-epicatechin] | – | inhibit and reduce | –
Oc1cc(O)c2c(c1)O[C@H](c1ccc(O)c(O)c1)[C@H](O)[C@H]2c1c(O)cc(O)c2c1O[C@H](c1ccc(O)c(O)c1)[C@H](O)[C@H]2c1c(O)cc(O)c2c1O[C@H](c1ccc(O)c(O)c1)[C@H](O)C2 [proanthocyanidin C1, epicatechin-4β-8-epicatechin-4β-8-epicatechin] | – | inhibit and reduce | –
Bamlanivimab: monoclonal antibody treatment made by Eli Lilly | – | – | significantly reduce
